Data taken from US20110112193A1 (priority 2008, published 2011).

target: T1, Recombinant human LTC4 synthase (Homo sapiens, UniProt Q16873); test: LTC4 synthase in vitro assay (e.g. by HTRF detection); format: biochemical
T1 construct: made in house; host or cells: Pichia pastoris ('Piccia pastoralis' [sic])
T1 sequence (Q16873 1-150): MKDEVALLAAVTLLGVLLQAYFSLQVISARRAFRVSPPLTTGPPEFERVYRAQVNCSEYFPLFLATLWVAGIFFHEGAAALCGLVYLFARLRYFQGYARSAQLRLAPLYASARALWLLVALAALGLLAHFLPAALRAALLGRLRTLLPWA
Method: In the assay, LTC4 synthase catalyses the reaction where the substrate LTA4 methyl ester is converted to the corresponding LTC4 methyl ester. Recombinant human LTC4 synthase is expressed in Piccia pastoralis and the purified enzyme is dissolved in 25 mM Tris-buffer pH 7.8 and stored at −80° C. The assay is performed in phosphate buffered saline (PBS) pH 7.4, supplemented with 5 mM glutathione (GSH). The reaction is terminated by addition of acetonitrile/MeOH/acetic acid (50/50/1). The assay is performed at rt in 96-well plates. Analysis of the formed LTC4 methyl ester is performed with reversed phase HPLC (Waters 2795 utilizing an Onyx Monolithic C18 column). The mobile phase consists of acetonitrile/MeOH/H2O (32.5/30/37.5) with 1% acetic acid pH adjusted with NH3 to pH 5.6, and absorbance measured at 280 nm with a Waters 2487 UV-detector.
The following is added chronologically to each well: • 1. 50 μl assay buffer, PBS with 5 mM GSH. • 2. 0.5 μl inhibitor in DMSO (final conc. 1 nM-10 μM). • 3. 2 μl LTC4 synthase in PBS. The total protein concentration in this solution is 0.025 mg/ml. Incubation of the plate at room temperature for 10 minutes. • 4. 1-1.5 μl LTA4 methyl ester (final conc. 10 μM). Incubation of the plate at rt for 1 min. • 5. 50 μl stop solution.
80 μl of the incubation mixture is analysed with HPLC.
Alternatively, HTRF detection can be used:
In the assay, LTC4 synthase catalyses the reaction where the substrate LTA4 is converted to LTC4. Recombinant human LTC4 synthase is expressed in Piccia pastoralis and the purified enzyme is dissolved in 25 mM tris-buffer pH 7.8 supplemented with 0.1 mM glutathione (GSH) and stored at −80° C. The assay is performed in phosphate buffered saline (PBS) pH 7.4 and 5 mM GSH in 384-well plates.
The following is added chronologically to each well:
1.48 μL LTC4 synthase in PBS with 5 mM GSH. The total protein concentration in this solution is 0.5 μg/mL.
2. 1 μL inhibitor in DMSO (final concentration 1 nM to 10 μM).
3. Incubation of the plate at room temperature for 10 min.
4. 1 μL LTA4 (final concentration 2.5 μM).
5. Incubation of the plate at room temperature for 5 min.
6. 10 μL of the incubation mixture is analysed using homogenous time resolved fluorescent (HTRF) detection.

SMILES | IC50
CCCCOc1ccc(S(=O)(=O)Nc2ccc(Oc3ccc(Nc4ccc(F)c(F)c4)cc3C(=O)O)cc2C(=O)O)cc1 [Example 3, 2-(4-Butoxy-benzene-sulfonylamino)-5-[2-carboxy-4-(3,4-difluoro-phenylamino)-phenoxy]-benzoic acid] | 1020 nM
CCCCOc1ccc(S(=O)(=O)Nc2ccc(Oc3ccc(Nc4ccc(F)c(F)c4)cc3C(=O)O)cc2)cc1 [Example 1, 2-[4-(4-Butoxy-benzene-sulfonylamino)-phenoxy]-5-(3,4-difluoro-phenyl-amino)-benzoic acid] | 243 nM
O=C(O)c1cc(Nc2ccc(F)c(F)c2)ccc1Oc1ccc(Nc2ccc(F)c(F)c2)cc1 [Example 2, 5-(3,4-Difluoro-phenylamino)-2-[4-(3,4-difluoro-phenylamino)-phenoxy]-benzoic acid] | 1900 nM
O=C(O)c1cc(Oc2ccc(Nc3ccc(F)c(F)c3)cc2C(=O)O)ccc1Nc1ccc(F)c(F)c1 [Example 4] | 2030 nM
